{"source": "patent US20250375474A1", "about": "“COMPOSITIONS FOR THE PREVENTION AND TREATMENT OF MOISTURE-ASSOCIATED SKIN DAMAGE” (SCOTIADERM INC., priority 2022, published 2025)", "data": [{"tested_on": "incontinence-associated dermatitis (IAD) lesions induced with 5% pancreatin", "experiment": "Incontinence-associated dermatitis (IAD) rabbit model, treatment of induced ear lesions", "assay_type": "in vivo", "settings": "rabbit ears; 1% clotrimazole, 1% hydrocortisone, 15% zinc oxide applied separately vs combination", "procedure": "A rabbit model of IAD was also investigated. A combination cream (DGBC) was used to assess healing of an animal model of IAD compared with three active components of the cream. Twenty-six IAD lesions were induced and each lesion was treated with the individual components and the combination cream.\nRabbits were purchased from Charles River to be used for these experiments. […] Additionally, the animals' ears were used to maximize the sample size, effectively halving the number of animals required for the project. Twenty-two female rabbits were purchased: 2 for the pilot phase and 18 for phase 2 of the project. The study was conducted, and animals were housed at the AVC Research Facility as per CCAC guidelines. The experimental treatment utilized a therapeutic cream composed of 1.0% hydrocortisone, 1.0% clotrimazole and 15.0% zinc oxide (DGBC).\nInduction of IAD. 1.Sedation of rabbit: Midazolam 0.5 mg/kg intramuscularly (IM) plus buprenorphine 0.03 mg/kg IM. Animals were assessed for sedation prior to gauze application. Animals requiring further sedation were sedated with ketamine 5 mg/kg IM. 2.Cleaning of the ear: The skin of both inner ears of each animal were cleaned with a 2×2 gauze saturated with 3 ml isopropyl alcohol and allowed to air dry for 5 minutes before applying the saturated gauze. The animal were held for a period of 5 min to ensure the ear was dry prior to application of IAD induction. 3.Application of gauze with 5% pancreatin to induce IAD: both ears of the animals were irritated as follows: Sterile 2×2 gauze was used as a carrier for the irritant. The gauze was saturated with 3 ml of pancreatin. 4.Wrapping of the ear: Both ears of each animal had gauze with pancreatin applied to the medial surface. […] 5.Monitoring period of 24 h: After 24 hours the bandage and occlusive dressing was removed and the ears assessed for sufficient irritation. […] Rabbits assessed as painful 1 hour after administration of gabapentin were treated with buprenorphine 0.03 mg/kg SC and be reassessed for pain in 1 hour. […]", "values": [{"smiles": "C[C@]12CCC(=O)C=C1CC[C@@H]1[C@@H]2[C@@H](O)C[C@@]2(C)[C@H]1CC[C@]2(O)C(=O)CO", "note": "[hydrocortisone, 11β, 17α,21-Trihydroxypregn-4-ene-3,20-dione]", "effect in treating IAD compared with DGBC therapeutic cream": "do not produce the same effect"}, {"smiles": "Clc1ccccc1C(c1ccccc1)(c1ccccc1)n1ccnc1", "note": "[clotrimazole, Clotrimazole]", "effect in treating IAD compared with DGBC therapeutic cream": "do not produce the same effect"}, {"smiles": "[O]=[Zn]", "note": "[zinc oxide, Zinc oxide]", "effect in treating IAD compared with DGBC therapeutic cream": "do not produce the same effect"}]}]}
